From PubChem BioAssay AID264 (DTP/NCI, 2004)
Values joined by “and” are separate entries in the source; they are usually repeats but may differ in a detail not shown here. Equal entries are not always repeated. Records with an inconclusive call do not appear.

System: nude mice, LX-1 lung xenograft intrarenal, tumor weight T/C
Test: NCI In Vivo Anticancer Drug Screen. Data for tumor model Human Lung LX-1 Xenograft (intrarenal inoculation) in NU/NU Swiss (nude) mice
Settings: endpoint: mean tumor weight change, higher = larger tumour
Summary of the method: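 In vivo, transplantable tumor; compound vs vehicle arms; tumor size measured; value = T/C.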

[1] = dose: 2400.0 mg/kg/injection, schedule: Q04DX003 (sc), vehicle: suspension in saline
[2] = dose: 300.0 mg/kg/injection, schedule: Q04DX003 (sc), vehicle: saline
[3] = dose: 100.0 mg/kg/injection, schedule: Q04DX003 (sc), vehicle: saline
[4] = dose: 200.0 mg/kg/injection, schedule: Q04DX003 (sc), vehicle: saline
[5] = dose: 300.0 mg/kg/injection, schedule: Q04DX003 (sc), vehicle: saline with Tween-80
[6] = dose: 600.0 mg/kg/injection, schedule: Q04DX003 (sc), vehicle: saline with Tween-80
[7] = dose: 1200.0 mg/kg/injection, schedule: Q04DX003 (sc), vehicle: saline with Tween-80
[8] = dose: 2400.0 mg/kg/injection, schedule: Q04DX003 (sc), vehicle: saline with Tween-80

In the case of `CCC(C)Nc1ccc(N)cc1` (stereo not given), the T/C (dose: 9.0 mg/kg/injection, schedule: Q04DX003 (sc), vehicle: Klucel (hydroxypropylcellulose) (HPC)) is reported as 80 % of control and the T/C (dose: 18.0 mg/kg/injection, schedule: Q04DX003 (sc), vehicle: Klucel (hydroxypropylcellulose) (HPC)) is reported as 104 % of control.
For `CC1=CC(C)(C)Nc2ccc(CSc3ccccc3)cc21`, the T/C (dose: 75.0 mg/kg/injection, schedule: Q01DX010 (sc), vehicle: saline + Tween-80 + alcohol) was 105 % of control, the T/C (dose: 150.0 mg/kg/injection, schedule: Q01DX010 (sc), vehicle: saline + Tween-80 + alcohol) was 105 % of control and the T/C (dose: 300.0 mg/kg/injection, schedule: Q01DX010 (sc), vehicle: saline + Tween-80 + alcohol) was 85 % of control.
With `Nc1nc([Se])c2ncn(C3OC(CO)C(O)C3O)c2n1` (stereo not given) the T/C (dose: 1.0 mg/kg/injection, schedule: Q01DX010 (sc), vehicle: saline) was 264 % of control, the T/C (dose: 2.0 mg/kg/injection, schedule: Q01DX010 (ip), vehicle: saline) was 46 % of control and the T/C (dose: 4.0 mg/kg/injection, schedule: Q01DX010 (ip), vehicle: saline) was 31 % of control. The T/C (dose: 6.66 mg/kg/injection, schedule: Q04DX003 (ip), vehicle: saline) was 82 % of control, the T/C (dose: 6.66 mg/kg/injection, schedule: Q04DX003 (sc), vehicle: saline) was 45 % of control and the T/C (dose: 8.0 mg/kg/injection, schedule: Q01DX010 (ip), vehicle: saline) was 41 % of control. For the same molecule, the T/C (dose: 13.33 mg/kg/injection, schedule: Q04DX003 (ip), vehicle: saline) was 121 % of control, the T/C (dose: 13.33 mg/kg/injection, schedule: Q04DX003 (sc), vehicle: saline) was 62 % of control and the T/C (dose: 16.0 mg/kg/injection, schedule: Q01DX010 (ip), vehicle: saline) was 61 % of control. The T/C (dose: 16.0 mg/kg/injection, schedule: Q01DX010 (sc), vehicle: saline) was 35 % of control, the T/C (dose: 26.65 mg/kg/injection, schedule: Q04DX003 (ip), vehicle: saline) was 91 % of control and the T/C (dose: 26.65 mg/kg/injection, schedule: Q04DX003 (sc), vehicle: saline) was 95 % of control. The T/C (dose: 53.3 mg/kg/injection, schedule: Q04DX003 (ip), vehicle: saline) was 44 % of control.
With `CC(=O)O[C@@H]1CO[C@H]2O[C@H]3[C@@H](C(C=O)=C[C@H](O)[C@@H]4C5=C(C(C)C)CC[C@]5(C)CC[C@@]34C)[C@@]2(O)C1=O` the T/C (dose: 100.0 mg/kg/injection, schedule: Q04DX003 (sc), vehicle: Klucel (hydroxypropylcellulose) (HPC)) was 94 % of control and the T/C (dose: 400.0 mg/kg/injection, schedule: Q04DX003 (sc), vehicle: Klucel (hydroxypropylcellulose) (HPC)) was 54 % of control.
In the case of `COc1cc2cc3cc4cc(OC)c(OC)cc4c(C)[n+]3cc2cc1OC` (tested in a mixture with another compound), the T/C (dose: 300.0 mg/kg/injection, schedule: Q04DX003 (sc), vehicle: suspension in saline) is reported as 105 % of control, the T/C (dose: 600.0 mg/kg/injection, schedule: Q04DX003 (sc), vehicle: suspension in saline) is reported as 71 % of control and the T/C (dose: 1200.0 mg/kg/injection, schedule: Q04DX003 (sc), vehicle: suspension in saline) is reported as 71 % of control. The T/C [1] was 53 % of control.
`CN(C)[C@@H]1C(=O)C(C(N)=O)=C(O)[C@@]2(O)C(=O)C3=C(O)c4c(O)ccc(Cl)c4[C@@](C)(O)[C@H]3C[C@@H]12` was tested, and the T/C [2] was 81 % of control, the T/C (dose: 600.0 mg/kg/injection, schedule: Q04DX003 (sc), vehicle: saline) was 200 % of control and the T/C (dose: 1200.0 mg/kg/injection, schedule: Q04DX003 (sc), vehicle: saline) was 220 % of control.
For `CCO/C=C1\SC(=S)N(c2ccccc2C)C1=O`, the T/C (dose: 100.0 mg/kg/injection, schedule: Q01DX010 (sc), vehicle: saline with Tween-80) was 26 % of control, the T/C (dose: 200.0 mg/kg/injection, schedule: Q01DX010 (sc), vehicle: saline with Tween-80) was 64 % of control and the T/C (dose: 400.0 mg/kg/injection, schedule: Q01DX010 (sc), vehicle: saline with Tween-80) was 76 % of control. For the same molecule, the T/C (dose: 800.0 mg/kg/injection, schedule: Q01DX010 (sc), vehicle: saline with Tween-80) was 89 % of control.
In the case of `OC1CCCC2CCC[N-]C12.OC1CCCC2CCC[N-]C12.[Mn+2]` (stereo not given), the T/C (dose: 300.0 mg/kg/injection, schedule: Q04DX003 (sc), vehicle: Klucel (hydroxypropylcellulose) (HPC)) is reported as 95 % of control, the T/C (dose: 600.0 mg/kg/injection, schedule: Q04DX003 (sc), vehicle: Klucel (hydroxypropylcellulose) (HPC)) is reported as 52 % of control and the T/C (dose: 1200.0 mg/kg/injection, schedule: Q04DX003 (sc), vehicle: Klucel (hydroxypropylcellulose) (HPC)) is reported as 46 % of control. The T/C (dose: 2400.0 mg/kg/injection, schedule: Q04DX003 (sc), vehicle: Klucel (hydroxypropylcellulose) (HPC)) was 63 % of control.
In the case of `C=C1C(C)C2C(Cc3ccccc3)NC(=O)C23C(OC(C)=O)/C=C/C(C)(O)CC(C)C/C=C/C3C1O` (stereo not given), the T/C (dose: 6.25 mg/kg/injection, schedule: Q04DX003 (sc), vehicle: Klucel (hydroxypropylcellulose) (HPC)) is reported as 112 % of control and the T/C (dose: 12.5 mg/kg/injection, schedule: Q04DX003 (sc), vehicle: Klucel (hydroxypropylcellulose) (HPC)) is reported as 112 % of control.
With `NC(=O)c1ccc[n+](Cc2c(Cl)cccc2Cl)c1` the T/C (dose: 50.0 mg/kg/injection, schedule: Q04DX003 (sc), vehicle: saline) was 115 % of control, the T/C [3] was 83 % of control and the T/C [4] was 90 % of control.
For `COC1/C=C\C=C(/C)C(=O)NC2=CC(=O)C=C(C2=O)C(OC)C(C)CC(OC)C(OC)C(C)/C=C(/C)C1OC(N)=O` (stereo not given), the T/C (dose: 4.5 mg/kg/injection, schedule: Q04DX003 (sc), vehicle: Klucel (hydroxypropylcellulose) (HPC)) was 82 % of control.
For `COC1=C2C[C@@H](C)C[C@@H](OC)[C@@H](O)[C@H](C)/C=C(\C)[C@@H](OC(N)=O)[C@H](OC)/C=C\C=C(/C)C(=O)NC(=CC1=O)C2=O`, the T/C (dose: 1.0 mg/kg/injection, schedule: Q04DX003 (sc), vehicle: saline) was 77 % of control, the T/C (dose: 2.0 mg/kg/injection, schedule: Q04DX003 (sc), vehicle: saline) was 57 % of control and the T/C (dose: 4.0 mg/kg/injection, schedule: Q04DX003 (sc), vehicle: saline) was 104 % of control. The T/C (dose: 8.0 mg/kg/injection, schedule: Q04DX003 (sc), vehicle: saline) was 81 % of control.
For `C1OC1C1CO1` (stereo not given), the T/C (dose: 12.5 mg/kg/injection, schedule: Q01DX010 (sc), vehicle: saline) was 106 % of control, the T/C (dose: 25.0 mg/kg/injection, schedule: Q01DX010 (sc), vehicle: saline) was 80 % of control and the T/C (dose: 50.0 mg/kg/injection, schedule: Q01DX010 (sc), vehicle: saline) was 66 % of control.
With `Cc1ccc(NC(=O)Oc2ccc(Br)cc2Br)c([N+](=O)[O-])c1` the T/C [5] was 61 % of control, the T/C [6] was 98 % of control and the T/C [7] was 93 % of control. The T/C [8] was 68 % of control.
For `COc1cc(C2c3cc4c(cc3C(O)C(CO)C2CO)OCO4)cc(OC)c1OC` (stereo not given), the T/C [5] was 103 % of control, the T/C [6] was 95 % of control and the T/C [7] was 90 % of control. For the same molecule, the T/C [8] was 38 % of control.
For `CONc1ccn(C2OC(CO)C(O)C2O)c(=O)n1` (stereo not given), the T/C [2] was 62 % of control.
For `CCc1nc(N)nc(N)c1-c1ccc(Cl)c([N+](=O)[O-])c1`, the T/C (dose: 9.38 mg/kg/injection, schedule: Q04DX003 (sc), vehicle: saline with Tween-80) was 99 % of control, the T/C (dose: 18.75 mg/kg/injection, schedule: Q04DX003 (sc), vehicle: saline with Tween-80) was 108 % of control and the T/C (dose: 37.5 mg/kg/injection, schedule: Q04DX003 (sc), vehicle: saline with Tween-80) was 99 % of control. The T/C (dose: 75.0 mg/kg/injection, schedule: Q04DX003 (sc), vehicle: saline with Tween-80) was 119 % of control.
In the case of `Nc1ncn(C2OC(CO)C(O)C2O)c(=O)n1` (stereo not given), the T/C (dose: 0.19 mg/kg/injection, schedule: Q01DX010 (sc), vehicle: saline) is reported as 164 % of control, the T/C (dose: 0.75 mg/kg/injection, schedule: Q01DX010 (sc), vehicle: saline) is reported as 40 % of control and the T/C (dose: 10.0 mg/kg/injection, schedule: Q04DX003 (sc), vehicle: saline) is reported as 101 % of control. The T/C (dose: 20.0 mg/kg/injection, schedule: Q04DX003 (sc), vehicle: saline) was 52 % of control, the T/C [3] was 86 % of control and the T/C [4] was 64 % of control. The T/C (dose: 200.0 mg/kg/injection, schedule: Q04DX003 (sc), vehicle: suspension in saline) was 45 % of control, the T/C (dose: 400.0 mg/kg/injection, schedule: Q04DX003 (sc), vehicle: saline) was 35 % of control and the T/C (dose: 800.0 mg/kg/injection, schedule: Q04DX003 (sc), vehicle: saline) was 16 % of control. The T/C (dose: 800.0 mg/kg/injection, schedule: Q04DX003 (sc), vehicle: suspension in saline) was 19 % of control and 28 % of control, the T/C (dose: 1228.8 mg/kg/injection, schedule: Q04DX003 (sc), vehicle: suspension in saline) was -72 % of control and the T/C (dose: 1600.0 mg/kg/injection, schedule: Q04DX003 (sc), vehicle: suspension in saline) was 12 % of control and 14 % of control. For the same molecule, the T/C (dose: 1920.0 mg/kg/injection, schedule: Q04DX003 (sc), vehicle: suspension in saline) was -100 % of control and the T/C [1] was -100 % of control.
